## O=C(O)C(F)(F)c1ccc(-c2noc(C(F)(F)F)n2)cc1 [I-2, 2,2-difluoro-2-[4-[5-(trifluoromethyl)-1,2,4-oxadiazol-3-yl]phenyl]acetic acid]
  melting point: 119 to 121 °C

Reference: patent US20230142542A1, “USE OF SUBSTITUTED 1,2,4-OXADIAZOLES FOR COMBATING PHYTOPATHOGENIC FUNGI” (BASF SE, priority 2020, published 2023)
